The results in this text go back to patent publication US11246961B2, “Engineered scaffolds for vascularized tissue repair” (The Regents of the University of California, priority 2016, dated 2022).

“Also recorded” adds a separate entry of the source.

For one assay, the system named is EGFR. The assay is described as follows: mRNA level of EGFR on EPCs. The assay is classed as cell-based. The settings on record: EPCs treated with LXW7. The procedure: FIG. 15 presents graphs of mRNA levels of VEGFR-2 (A) and EGFR (B) on EPCs after treating with different concentrations of LXW7 for 48 h. *P<0.05 vs. Control, #P<0.05 vs. 25 nM (n=10 per group).

A further assay deals with platelets. Put plainly: platelet-bead binding assay. The assay is classed as cell-based. The settings on record: 10 minutes, 30 minutes or 2 hours. The procedure: HECFCs, HCAECs and HMVECs were cultured in EC expansion medium EGM-2 and THP-1 monocytes were cultured in RPMI Medium 1640 (Gibco) supplemented with 10% fetal bovine serum (FBS, Hyclone) and 0.05 mM 2-mercaptoethanol (Sigma). αvβ3-K562 cells and αIIbβ3-K562 cells were cultured in RPMI Medium 1640 plus 10% FBS. Platelet-rich plasma (PRP) was obtained from UC Davis Medical Center (Sacramento, Calif.). Fresh PRP (260×10^3 platelets/μL) was centrifuged, and the pellets were resuspended in Dulbecco's Phosphate Buffer Saline (DPBS; Hyclone) containing 2 mM CaCl2) and MgCl2 to a final concentration of 1×10^8 platelets/mL.
HECFCs, HCAECs, HMVECs and THP-1 monocytes were cultured in their respective growth medium as described in Example 1. For cell bead-binding assay, 6×10^5 HECFCs, HCAECs, HMVECs or THP-1 monocytes in 2 mL of their respective culture medium were added to an ultra-low attachment 35-mm petri dish (Corning Incorporated) followed by resin beads (Lam et al. (1991) Nature 354:82). The dishes were incubated in a shaking incubator at 37° C., 5% CO2 for various time points at 40 rpm. For platelet bead-binding assay, the platelets isolated as described in Example 1 were added to an ultra-low attachment 35-mm petri dish and incubated with the resin beads in the shaking incubator as described for the cell-bead binding assy. […]

In another assay the test system is HCAECs. The assay is described as follows: on-bead whole cell binding assay, HCAECs. The assay is classed as cell-based, human. From the text:
(§1) Human coronary artery endothelial cells (HCAECs) were purchased from ATCC. Human cardiac microvascular endothelial cells (HMVECs) were purchased from Lonza. THP-1 monocytes were obtained from Dr. Pamela Lein (University of California, Davis). The myeloid leukemia K562 cells that have been transfected with human integrin αvβ3 gene (αvβ3-K562 cells) were provided by Dr. Yoshikazu Takada and the K562 cells transfected with human integrin αIIbβ3 gene (αIIb3-K562 cells) were provided Dr. Jennifer Cochran (Stanford University)
(§2) HECFCs, HCAECs, HMVECs and THP-1 monocytes were cultured in their respective growth medium as described in Example 1. For cell bead-binding assay, 6×10^5 HECFCs, HCAECs, HMVECs or THP-1 monocytes in 2 mL of their respective culture medium were added to an ultra-low attachment 35-mm petri dish (Corning Incorporated) followed by resin beads (Lam et al. (1991) Nature 354:82). The dishes were incubated in a shaking incubator at 37° C., 5% CO2 for various time points at 40 rpm. For platelet bead-binding assay, the platelets isolated as described in Example 1 were added to an ultra-low attachment 35-mm petri dish and incubated with the resin beads in the shaking incubator as described for the cell-bead binding assy. Phase contrast images were taken at different time points using an Olympus IX81 microscope.
Three integrin-targeting ligands—LXY30 (α3β1), LLP2A (α4β1) and LXW7 (αvβ3)—were tested for their binding activities to EPCs and ECs. […] LXY30 only bound to ECs, not to EPCs. LLP2A only bound to EPCs, not to ECs. LXW7 bound well to both EPCs and ECs.

The test system of a further assay is HMVECs. Put plainly: on-bead whole cell binding assay, HMVECs. The assay is classed as cell-based, human. As to conditions: 10 minutes, 30 minutes or 2 hours.
Text: as §1
as §2, with “microscope. […]” for “microscope.”

The test system of another assay is VEGFR2 (Tyr1175). Put plainly: Western-blot analysis, phosphorylation of VEGFR2. The assay is classed as cell-based, human. As to conditions: LXW7 treated surface, 96 hours, vs D-biotin. The procedure:
The 100-mm dishes from Example 2 were treated with Avidin followed by LXW7-bio or D-biotin as described in Example 5. 8×10^5 HCAECs were seeded per dish and cultured in EGM-2 media for 4 days. Cells were lysed using Extraction Kit (Thermo Fisher Scientific) and protein concentrations were determined using BCA Protein Assay (Thermo Fisher Scientific). Fifteen μg of each sample were loaded and separated using a 4-12% Bis-Tris NuPAGE gel (Thermo Fisher Scientific) and transferred to a nitrocellulose membrane. The membrane was blocked in 5% BSA in TBST (Tris-buffered saline with 0.5% Tween-20), and subsequently incubated with primary antibodies anti-VEGF Receptor 2, anti-Phospho-VEGF Receptor 2, anti-p44/42 MAPK (Erk1/2) and anti-Phospho-p44/42 MAPK (Erk1/2) (Thr202/Tyr204), all purchased from Cell Signaling Technologies, in 1% BSA overnight at 4° C. After washing three times with TBST, the membranes were incubated with respective horseradish peroxidase-conjugated secondary antibodies in 1% non-fat dry milk in TBST (BioRad) for 1 hour at room temperature. After washing, the protein bands were visualized using West Dura Substrate (Thermo Fisher Scientific) and quantified using Image J software.

With cGRGDdvc [LXW7], the “EGFR mRNA level” value in the assay on EGFR was “increases in VEGFR2 and EGFR mRNA levels were found to be dependent on treatment time”. Moreover, the “attachment of platelets to beads displaying LXW7” value with platelets is on record as “did not support effective attachment”. Besides, in the assay on HCAECs (10 minutes, 30 minutes or 2 hours), the “attachment of HCAECs to beads displaying LXW7” value is “efficiently supported attachment of EPCs/ECs from different sources; also recorded: efficiently supported EPC/EC attachment”. Besides, in the assay on HCAECs (2 hours incubation), the “binding of HCAECs to ligand-displaying resin beads” value is “bound both HECFCs and HCAECs”. For the same substance, in the assay with HMVECs, the “attachment of HMVECs to beads displaying LXW7” value is given as “efficiently supported attachment of EPCs/ECs from different sources; also recorded: efficiently supported EPC/EC attachment”. In the assay with VEGFR2 (Tyr1175), the “phosphorylation of VEGFR2 (Tyr1175) in ECs” value was “significantly increased”.
